These results are taken from patent US20050080113A1, “Medicinal compositions” (priority 2001, published 2005).

The IC50 is the concentration that gives 50% inhibition. A word on the melting point: it is the temperature, or range, at which the solid turns liquid.

The target of series [1] is T1, human p38 MAP kinase (Homo sapiens, UniProt Q16539).
T1 construct: made in house; host or cells: Sf-21 insect cells, baculovirus (BAC-HP38 co-infected with BAC-caMKK3)
The series can be described thus: Inhibition of active type p38 MAP kinase (32P incorporation into Myelin Basic Protein), Reference Example K 1. In kind it is biochemical. Conditions: Reference Example H compounds, 30° C., 60 minutes. As for the experimental part:
Genetic manipulation methods described below are based on methods described in Maniatis et al., Molecular Cloning, ColdSpring Harbor Laboratory, 1989, and the appended reagent protocol.
(§1) (1) Cloning of Human p38 MAP Kinase Gene and Preparation of Recombinant Baculovirus
Cloning of human p38 MAP kinase gene was conducted by a PCR method using primer set p38 U: 5′-[…] C-3′ [SEQ ID No. 1] and PAG-L: 5′-[…]-3′ [SEQ ID No. 2] synthesized referring to the nucleotide sequence of p38 MAP kinase gene of Han et al., Science 265 (5173), 808 811 (1994), utilizing kidney cDNA (QUICK-Clone cDNA, manufactured by Toyobo Co., Ltd.) as a template.
A PCR reaction was performed according to Hot Start method using AmpliWax PCR Gem 100 (Takara Shuzo Co., Ltd.). For preparing lower layer mixed liquid, 2 μL of 10×LA PCR Buffer, 3 μL of 2.5 mM dNTP solution, each 2.5 μL of 12.5 μM primer solution, and 10 μL of sterile distilled water were mixed. For preparing upper layer mixed liquid, 1 μL of human heart cDNA (1 ng/mL) as a template, 3 μL of 10×LA PCR Buffer, 1 μL of 2.5 mM dNTP solution, 0.5 μL of TaKaRa LA Taq DNA polymerase (Takara Shuzo Co., Ltd.) and 24.5 μL of sterile distilled water were mixed. To the prepared lower mixed liquid was added one AmpliWax PCR Gem 100 (Takara Shuzo Co., Ltd.), treated for 5 minutes at 70° C. and 5 minutes in ice, then, the upper mixed liquid was added, to prepare a reaction solution for PCR. A tube filled with the reaction solution was set on Thermal Cycler (Perkin Elmer), then, treated for 2 minutes at 95° C. Further, a cycle including 15 seconds at 95° C. and 2 minutes at 68° C. was repeated 35 times, then, treated for 8 minutes at 72° C. The resulted PCR product was subjected to agarose gel (1%) electrophoresis, a 1.1 kb DNA fragment containing a p38 MAP kinase gene was recovered from the gel, then, pT7Blue-T vector (Takara Shuzo Co., Ltd.) was inserted to prepare a plasmid pHP38.
4.8 kb XhoI-KpnI fragment of plasmid pFASTBAC1 (CIBCOBRL) and 1.1 kb XhoI-Kpn fragment of the above-mentioned plasmid pHP38 were ligated to construct plasmid pFBHP38.
Plasmid pFBHP38 and BAC-TO-BAC Baculovirus Expression System (GIBCOBRL) were used to prepare virus stock BAC-HP38 of recombinant baculovirus.
(§2) (2) Cloning of Human MKK3 Gene and Preparation of Recombinant Baculovirus
Cloning of human MKK3 gene was conducted by a PCR method using primer set MKK-U: 5′-[…] 3′ [SEQ ID No. 3] and MKK-L: 5′-[…]-3′ [SEQ ID No. 4] synthesized referring to the nucleotide sequence of MKK3 gene of Derijard, B. et al., Science 267 (5198), 682 685 (1995), utilizing kidney cDNA (QUICK-Clone cDNA, manufactured by Toyobo Co., Ltd.) as a template.
A PCR reaction was performed according to Hot Start method using AmpliWax PCR Gem 100 (Takara Shuzo Co., Ltd.). […]

In series [2] the test system is TNF-α production in THP-1 cells. Nature of the series: Measurement of inhibitory activity of TNF-α production (LPS-stimulated THP-1 cells, ELISA), Reference Example K 2. It counts as cell-based. The note with it: Homo sapiens, Reference Example H compounds, LPS 5 μg/mL, 4 hours, read-out: IC50 (inhibition of TNF-α production). As for the experimental part: THP-1 cells cultured in a PRMI 1640 medium (Life Technologies, Inc., USA) containing 1% inactivated fetal bovine serum (Life Technologies, Inc.) and 10 mM HEPES (pH 7.5) were inoculated on a 96 well plate to give 1×10^5 cells/well, then, 1 μL of a sample compound dissolved in DMSO was added. After incubation for 1 hour at 37° C. in a CO2 incubator, LPS (Wako Pure Chemical Industries Ltd.) was added to give a final concentration of 5 μg/mL. After incubation for 4 hours at 37° C. in a CO2 incubator, the supernatant was obtained by centrifugal separation. The TNF-α concentration in the supernatant was measured by ELISA (R&D Systems, Quantikine Kit). The concentration (IC50 value) of a sample compound necessary for inhibiting 50% of TNF-α production was calculated by PRISM 2.01 (GraphPad Software).

The subject of a further series is TNF-α production. Nature of the series: Measurement of inhibiting activity of TNF-α production in LPS-stimulated THP-1 cells, ELISA (Reference Example F 3). The note with it: Homo sapiens, LPS 5 μg/mL, 4 hours, ELISA (R&D System). In kind it is cell-based. As for the experimental part: Measurement of Inhibiting Activity of TNF-α Production
After THP-1 cells which had been cultured in PRMI 1640 medium (manufactured by Life Technologies, Inc.) containing 1% non-activated bovine fetal serum (manufactured by Life Technologies, Inc., U.S.A.) and 10 mM HEPES (pH 7.5) seeded on a 96 well plate to 1×10^5 cells/well, 1 μL test compound dissolved in DMSO was added to there. After incubation at 37° C. for 1 hour in a CO2 incubator, LPS (Wako Pure Chemicals) was added to the final concentration 5 μg/mL. After cultured at 37° C. for 4 hours in a CO2 incubator, the supernatant was obtained by centrifugation. The concentration of TNF-α in the supernatant was measured with ELISA (R&D System, Quantikine Kit). The concentration (IC50 value) necessary for inhibiting TNF-α production by 50% was calculated by PRIMS 2.01 (Graphpad Software).
(In general: ELISA stands for enzyme-linked immunosorbent assay.)

In series [3] the target is T1, human p38 MAP kinase. The series can be described thus: Measurement of the p38 MAP kinase inhibitory activity, 32P uptake into Myelin Basic Protein (Reference Example F 2). It counts as biochemical. Conditions: active form p38 MAP kinase, 30° C. 60 minutes, read-out: IC50 (p38 MAP kinase inhibitory activity, uptake of 32P into acid insoluble fraction). The procedure: The genetic manipulations described below were according to the methods described in the book (Maniatis et al., Molecular Cloning, Cold Spring Harbor Laboratory, 1989) or a method described in the protocol attached to the reagent.
as §1
Cloning of human p38 MAP kinase gene was performed by a PCR method using a primer set P38 U: 5′-[…]-3′ [SEQ ID NO:9] and PAG-L: 5′-[…]-3′ [SEQ ID NO:10] made by reference to the base sequence of p38 MAP kinase gene reported by Han et al. (Science 265 (5173), 808 811 (1994)) and employing kidney cDNA (Toyobo, QUICK-Clone cDNA) as a template.
A PCR reaction was performed by a Hot Start method using AmpliWax PCR Gem 100 (Takara Shuzo). As the lower mixed solution, 2 μL 10×LA PCR Buffer, 3 μL 2.5 mM dNTP solution, each 2.5 μL of 12.5 μM primer solution, and 10 μL sterile distilled water were mixed. As the upper mixed solution, 1 μL human cardiac cDNA (1 ng/mL) as a template, 3 μL 10×LA PCR Buffer, 1 μL 2.5 mM dNTP solution, 0.5 μL TaKaRa LA Taq DNA polymerase (Takara Shuzo), and 24.5 μL sterile distilled water were mixed. One AmpliWax PCR Gem 100 (Takara Shuzo) was added to the prepared lower mixed solution to treat at 70° C. for 5 minutes and for 5 minutes in an ice and, thereafter, the upper mixed solution was added to prepare a reaction solution for PCR. A tube containing the reaction solution was set at a thermal cycler (Perkin Elmer), which was treated at 95° C. for 2 minutes. Further, after repeating 35 times a cycle of 15 seconds at 95° C. and 2 minutes at 68° C., treatment was performed at 72° C. for 8 minutes. The resulting PCR product was subjected to agarose gel (1%) electrophoresis, 1.1 kb DNA fragment containing p38 MAP kinase gene was recovered from the gel and, thereafter, which was inserted into pT7Blue-T vector (Takara Shuzo) to make the plasmid pHP38.
The 4.8 kb XhoI-KpnI fragment of the plasmid pFASTBAC1 (CIBCOBRL) and the 1.1 kb XhoI-Kpn fragment of the above plasmid pHP38 were ligated to make the plasmid pFBHP38.
The plasmid pFBHP38 and BAC-TO-BAC Baculovirus Expression System (GIBCOBRL) were used to prepare the recombinant Baculovirus virusstock BAC-HP38.
as §2
Cloning of human MKK3 gene was performed by a PCR method using a primer set MKK-U: 5′-[…]-3′ [SEQ ID NO:11] and MKK-L: 5′-[…]-3′ [SEQ ID NO:12] made by reference to the base sequence of MKK3 gene reported by Derijard, B. et al., Science 267 (5198), 682 685 (1995) and using kidney cDNA (Toyobo, QUICK-Clone cDNA).
A PCR reaction was performed by a Hot Start method using AmpliWax PCR Gem 100 (Takara Shuzo). As the lower mixed solution, 2 μL 10×LA PCR Buffer, 3 μL 2.5 mM dNTP solution, each 2.5 μL of 12.5 μM primer solution, and 10 μL sterile distilled water were mixed. As the upper mixed solution, 1 μL human kidney cDNA (1 ng/mL), 3 μL 10×LA PCR Buffer, 1 μL 2.5 mM dNTP solution, 0.5 μL TaKaRa LA taq DNA polymerase (Takara Shuzo) and 24.5 μL sterile distilled water were mixed. One AmpliWax PCR Gem 100 (Takara Shuzo) was added to the prepared lower mixed solution to treat at 70° C. for 5 minutes and for 5 minutes in ice and, thereafter, the upper mixed solution was added to prepare a reaction solution for PCR. A tube containing the reaction solution was set at a thermal cycler (Perkin Elmer), which was treated at 95° C. for 2 minutes. Further, after repeating 35 times a cycle of 15 seconds at 95° C. and 2 minutes at 68° C., treatment was performed at 72° C. for 8 minutes. The resulting PCR product was subjected to agarose gel (1%) electrophoresis, 1.0 kb DNA fragment containing MKK3 gene was recovered from the gel and, thereafter, which was inserted into pT7Blue-T vector (Takara Shuzo) to make the plasmid pHMKK3. […]

T1 sequence (Q16539 whole entry): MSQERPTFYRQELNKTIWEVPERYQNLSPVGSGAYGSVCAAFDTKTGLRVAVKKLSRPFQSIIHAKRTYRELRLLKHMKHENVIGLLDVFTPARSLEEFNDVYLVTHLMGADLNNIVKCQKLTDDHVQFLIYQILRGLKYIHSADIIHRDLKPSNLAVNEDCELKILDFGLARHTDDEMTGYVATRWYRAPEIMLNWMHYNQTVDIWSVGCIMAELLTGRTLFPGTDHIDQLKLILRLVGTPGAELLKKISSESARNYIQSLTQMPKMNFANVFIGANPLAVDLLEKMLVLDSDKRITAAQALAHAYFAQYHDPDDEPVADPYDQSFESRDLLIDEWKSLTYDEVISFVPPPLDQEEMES

As to `CCc1nc(-c2cccc(Cl)c2)c(-c2ccnc(NC3CCCCC3)c2)s1` [36-10], the melting point fell in the range of 106 to 107 °C. The compound further came in with a 50% inhibitory concentration (IC50) on human p38 MAP kinase [1] of 0.0011 µM. Besides, the IC50 in series [2] came to 0.055 µM.
On to `Cc1cccc(-c2nc(N(C)C(=O)c3ccc(C)nc3)sc2-c2ccnc(NC3CCCC3)c2)c1` [46-4], for which, in series [2], the IC50 came out at 0.082 µM.
In the case of `CCC(=O)Nc1cc(-c2sc(-c3ccc(S(C)(=O)=O)cc3)nc2-c2cccc(Cl)c2)ccn1` [58-7], the melting point was 224 to 225 °C. Moreover, the IC50 at human p38 MAP kinase [1] came to 0.0084 µM. In series [2], the concentration for half-maximal inhibition (IC50) worked out at 0.021 µM.
As for `COc1ccc(-c2nc(NC(=O)c3cccnc3)sc2-c2ccnc(NC(=O)c3cccnc3)c2)cc1` [D 3, N-[4-(4-methoxyphenyl)-5-[2-[(3-pyridylcarbonylamino)]-4-pyridyl]-1,3-thiazol-2-yl]nicotinamide], the IC50 with TNF-α production turned out to be 0.026 µM; at human p38 MAP kinase [3], 0.023 µM.
Turning to `COc1ccc(-c2nc(N)sc2-c2ccnc(NC(=O)c3ccccc3)c2)cc1` [D 4, N-[4-[2-amino-4-(4-methoxyphenyl)-1,3-thiazol-5-yl]-2-pyridyl]benzamide], the figures for the IC50 with TNF-α production and at human p38 MAP kinase [3] were 0.014 µM and 0.02 µM, respectively.
For `Cc1cc(C)cc(-c2nc(N)sc2-c2ccnc(NCc3ccccc3)c2)c1` [D 6, N-[4-[2-amino-4-(3,5-dimethylphenyl)-1,3-thiazol-5-yl]-2-pyridyl]benzylamine], the IC50 worked out at 0.14 µM in the series with TNF-α production and 0.023 µM on human p38 MAP kinase [3].
`CCc1nc(-c2cccc(Cl)c2)c(-c2ccnc(NC(C)=O)c2)s1` [H 30-2, N-[4-[4-(3-chlorophenyl)-2-ethyl-1,3-thiazol-5-yl]-2-pyridyl]acetamide] showed a melting point of 149 to 150 °C. Further, it took 0.01 µM to reach half-maximal inhibition on human p38 MAP kinase [1] (IC50). Besides, the IC50 in series [2] is 0.12 µM.
The compound `Cc1cccc(-c2nc(N)sc2-c2ccnc(NC3CCCCC3)c2)c1` [H 34-2, [5 (2 cyclohexylamino-4-pyridyl)-4 (3 methylphenyl)-1,3thiazol-2 yl]amine] yielded a melting point of 168 to 169 °C. Further, the IC50 against human p38 MAP kinase [1] came out at 0.0099 µM. In addition, in series [2], the IC50 stood at 0.002 µM.
